Measured values from patent publication US12583853B2, “1H-pyrrolo[2,3-b]pyridine derivatives and related compounds as BCL-2 inhibitors for the treatment of neoplastic and autoimmune diseases” (Newave Pharmaceutical Inc., priority 2018, dated 2026).
pEC50, pIC50, pKi: −log10 of the molar value.

What was measured:
Bcl-2 = molecular target: T1, Bcl-2 (Homo sapiens, UniProt P10415); assay: Bcl-2 competition binding (fluorescence polarization) assay; conditions: for pIC50: fluorescence polarization, 3 hours incubation at room temperature, read-out: BCL2 IC50; for BCL2 inhibitor potency in words: statement on the BCL2 IC50 table
T1 construct: purchased R&D Systems, Inc
T1 sequence (P10415 whole entry): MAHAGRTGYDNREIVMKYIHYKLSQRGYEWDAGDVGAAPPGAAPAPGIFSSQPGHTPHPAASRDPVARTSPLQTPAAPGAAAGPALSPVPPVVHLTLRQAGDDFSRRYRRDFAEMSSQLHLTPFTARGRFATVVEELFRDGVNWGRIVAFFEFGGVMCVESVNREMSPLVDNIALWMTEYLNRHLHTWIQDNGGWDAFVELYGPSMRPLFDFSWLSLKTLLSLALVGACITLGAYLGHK
Description: Biological Example 1: Bcl-2 Competition Binding (Fluorescence Polarization) Assay
This binding assay was performed in 96-well plate and with each assay contained 15 and 30 nM of labeled peptide and purified Bcl-2 protein (purchased from R&D Systems, Inc). The assay buffer contained 20 mM Hepes (pH 7.0), 50 mM KCl, 5 mM MgCl2, 20 mM Na2MoO4, 0.1 mg/ml Bovine Gamma Globulin and 0.01% NP40. Compounds were diluted in DMSO and added to the final assay with concentration range from 20 μM to 2 nM. The polarization degree (mP) value was determined by BioTek Synergy II with background subtraction after 3 hours of incubation at room temperature. IC50 was calculated using Prism software with sigmoidal dose-response curve fitting. ABT-737 was used as reference compound. Such assays, carried out with a range of doses of test compounds, allowed the determination of an approximate IC50 value.

Bcl-w = molecular target: T2, Bcl-w (Homo sapiens, UniProt Q92843); conditions: cited from earlier work
T2 sequence (Q92843 1-193): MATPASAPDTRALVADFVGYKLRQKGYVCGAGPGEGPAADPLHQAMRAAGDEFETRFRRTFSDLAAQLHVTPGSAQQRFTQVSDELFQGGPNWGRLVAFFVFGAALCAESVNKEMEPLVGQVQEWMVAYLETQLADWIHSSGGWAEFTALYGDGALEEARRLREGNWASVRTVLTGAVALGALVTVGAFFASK

SCLC H146 cell line = conditions: read-out: IC50 against SCLC H146 cell line; cited from earlier work
H345 xenograft = conditions: 100 mg/kg/day, H345 xenograft model; cited from earlier work
[1] = system: xenograft models of small-cell lung cancer and acute lymphoblastic leukemia; conditions: oral administration, alone; cited from earlier work
circulating platelets = conditions: clinical trial, patients; cited from earlier work
[2] = in vivo; cited from earlier work
Mcl-1 = Mcl-1 (Homo sapiens, UniProt Q07820); conditions: cited from earlier work
Mcl-1, sequence (Q07820 whole entry, species assumed): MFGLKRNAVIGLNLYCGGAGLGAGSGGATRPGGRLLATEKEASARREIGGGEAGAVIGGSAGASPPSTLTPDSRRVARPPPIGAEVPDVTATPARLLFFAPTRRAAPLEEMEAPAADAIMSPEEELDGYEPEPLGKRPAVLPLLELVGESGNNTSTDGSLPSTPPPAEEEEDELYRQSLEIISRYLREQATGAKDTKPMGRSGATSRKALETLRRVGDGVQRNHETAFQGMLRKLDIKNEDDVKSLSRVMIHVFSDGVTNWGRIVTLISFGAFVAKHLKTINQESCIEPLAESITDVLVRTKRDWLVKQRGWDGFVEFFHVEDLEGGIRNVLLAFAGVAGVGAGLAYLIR

RS4; 11 cells = conditions: cited from earlier work
CLL = conditions: read-out: average EC50, apoptosis in CLL; cited from earlier work
RS4; 11 xenografts = conditions: single dose of 100 mg/kg; cited from earlier work
[3] = system: xenograft (DoHH2, Granta-519); conditions: single agent or in combination with Bendamustine and other agents; cited from earlier work
[4] = cited from earlier work

With `C=C(c1cnc2[nH]ccc2c1)c1cc(N2CCN(CC3=C(c4ccc(Cl)cc4)CC(C)(C)CC3)CC2)ccc1C(=O)NS(=O)(=O)c1ccc(NC[C@H]2COCCO2)c([N+](=O)[O-])c1` [Example 3, (S)—N-((4-(((1,4-dioxan-2-yl)methyl)amino)-3-nitrophenyl)sulfonyl)-2-(1-(1H-pyrrolo[2,3-b]pyridin-5-yl)vinyl)-4-(4-((4′-chloro-5,5-dimethyl-3,4,5,6-tetrahydro-[1,1′-biphenyl]-2-yl)methyl)piperazin-1-yl)benzamide] the pIC50 (Bcl-2) was 8.89 and the “BCL2 inhibitor potency in words” value (Bcl-2) was “highly potent BCL2 inhibitor”.

For `CC1(C)CCC(c2ccc(Cl)cc2)=C(CN2CCN(c3ccc(C(=O)NS(=O)(=O)c4ccc(N[C@H](CCN5CCOCC5)CSc5ccccc5)c(S(=O)(=O)C(F)(F)F)c4)cc3)CC2)C1` [ABT-263], the pKi (Bcl-w) is given as at least 9.00, the pIC50 (SCLC H146 cell line) is given as 6.96 and the TGI (H345 xenograft) is given as 80%. For the same compound, the “treated tumors indicating at least a 50% reduction in tumor volume” value (H345 xenograft) was 20%, the tumor response [1] was “complete tumor regressions” and the “effect on circulating platelets” value (circulating platelets) was “rapid, concentration-dependent decrease in the number of circulating platelets”. The oral bioavailability [2] was “orally bioavailable”.

Work on `CC1(C)CCC(CN2CCN(c3ccc4c(c3)C(c3cnc5[nH]ccc5c3)CN(S(=O)(=O)c3ccc(NC[C@H]5COCCO5)c([N+](=O)[O-])c3)C4=O)CC2)=C(c2ccc(Cl)cc2)C1` (stereo partly drawn) [Example 2, 6-(4-[[2-(4-chlorophenyl)-4,4-dimethylcyclohex-1-en-1-yl]methyl]piperazin-1-yl)-2-(4-[[(2S)-1,4-dioxan-2-ylmethyl]amino]-3-nitrobenzenesulfonyl)-4-[1H-pyrrolo[2,3-b]pyridin-5-yl]-3,4-dihydroisoquinolin-1-one] yielded a pIC50 (Bcl-2) of 9.10.

In the case of `CC1(C)CCC(CN2CCN(c3ccc(C(=O)NS(=O)(=O)c4ccc(NCC5CCOCC5)c([N+](=O)[O-])c4)c(Oc4cnc5[nH]ccc5c4)c3)CC2)=C(c2ccc(Cl)cc2)C1` [ABT-199], the “activity to Mcl-1” value (Mcl-1) is listed as “no activity”, the pEC50 (RS4; 11 cells) is listed as 8.10 and the pEC50 (CLL) is listed as 8.52. For the same compound, the “maximal tumor growth inhibition” value (RS4; 11 xenografts) was 95%, the tumor growth delay (RS4; 11 xenografts) was 152% and the xenograft growth [3] was “inhibits xenograft growth”.

For `CN(C)CC[C@H](CSc1ccccc1)Nc1ccc(S(=O)(=O)NC(=O)c2ccc(N3CCN(Cc4ccccc4-c4ccc(Cl)cc4)CC3)cc2)cc1[N+](=O)[O-]` [ABT-737], the oral bioavailability [2] is given as “not orally bioavailable” and the aqueous solubility [4] is given as “low aqueous solubility”.

With `CC1(C)CCC(CN2CCN(c3ccc(C(=O)NS(=O)(=O)c4ccc(NCC5CCOCC5)c([N+](=O)[O-])c4)c(P(C)(=O)c4cnc5[nH]ccc5c4)c3)CC2)=C(c2ccc(Cl)cc2)C1` (centres unmarked) [Example 1, 4-(4-[[2-(4-chlorophenyl)-4,4-dimethylcyclohex-1-en-1-yl]methyl]piperazin-1-yl)-2-[methyl(1H-pyrrolo[2,3-b]pyridin-5-yl)phosphoroso]-N-[3-nitro-4-[(oxan-4-ylmethyl)amino]benzenesulfonyl]benzamide] the pIC50 (Bcl-2) was 9.35 and the “BCL2 inhibitor potency in words” value (Bcl-2) was “highly potent BCL2 inhibitor”.
